# Reference: ChEMBL document CHEMBL1127370, “Synthesis and structure-activity relationship of methyl-substituted indolo[2,3-b]quinolines: novel cytotoxic, DNA topoisomerase II inhibitors” (J Med Chem, 1994)
# What was measured:
# Nucleic Acid = details: Bos taurus
# Description: Increase of calf thymus DNA denaturation temperature (delta Tm)
# Trichophyton benhamiae = assay: microbe, parasite or virus in culture
# Description: Tested for antimicrobial activity against Trichophyton mentagrophytes (clinical isolate) at concentration of 0.01-5 uM/mL
# Staphylococcus aureus = assay: microbe, parasite or virus in culture
# Description: Tested for antimicrobial activity against Staphylococcus aureus PCM 458 at concentration of 0.01-5 uM/mL
# Micrococcus luteus = assay: microbe, parasite or virus in culture
# Description: Tested for antimicrobial activity against Micrococcus luteus PCM 525 at concentration of 0.01-5 uM/mL
# Candida albicans = assay: microbe, parasite or virus in culture
# Description: Tested for antimicrobial activity against Candida albicans (clinical isolate) at concentration of 0.01-5 uM/mL
# Description for KB: Cytotoxicity in vitro against KB cell line
# Description for physchem: Acid ionization constant is determined
Structure (SMILES),pKa (physchem),ΔTm (Nucleic Acid) [°C],ID50 (KB) [uM ml-1],MIC (Trichophyton benhamiae) [µM],MIC (Staphylococcus aureus) [µM],MIC (Micrococcus luteus) [µM],MIC (Candida albicans) [µM]
Cc1cccc2c(C)c3c(nc12)[nH]c1ccccc13,5.78,1.1,0.1,,,,
COc1cccc2c1C(=O)c1c(O)c3c(c(O)c1C2=O)C[C@@](O)(C(=O)CO)C[C@@H]3O[C@H]1C[C@H](N)[C@H](O)[C@H](C)O1,,13,,,,,
Cc1c2c3ccccc3nc-2n(C)c2ccccc12,7.45,11,0.004,60,120,60,30
Cc1c2ccncc2c(C)c2c1[nH]c1ccccc12 [ELLIPTECINE],7.4,9.8,0.07,,,,
Cc1ccc2[nH]c3nc4ccccc4c(C)c3c2c1,5.8,0.9,0.1,,,,
Cc1ccc2c(c1)c(C)c1c3ccccc3nc-1n2C,7.6,13.3,0.003,30,60,30,15
Cc1c2c3ccccc3nc-2n(C)c2c(C)cccc12,7.62,10.4,0.009,60,250,120,120
c1ccc2[nH]c3nc4ccccc4c-3cc2c1,5.55,0.3,0.6,,,,
Cc1ccc2nc3[nH]c4ccc(C)cc4c(C)c-3c2c1,5.98,1.6,0.1,,,,
Cc1ccc2nc3n(C)c4ccc(C)cc4c(C)c-3c2c1,7.68,19,0.002,30,30,15,15
Cc1ccc2[nH]c3nc4ccccc4c-3c(C)c2c1,5.73,1.4,0.1,,,,
Cn1c2nc3ccccc3c-2cc2ccccc21 [NEOCRYPTOLEPINE],7.24,5.2,0.006,60,250,250,120
Cc1c2c3ccccc3nc-2[nH]c2ccccc12,5.7,0.7,0.2,,,,
